The record followed here is article PMC8470104, “Anti-Metatype Antibody Screening, Sandwich Immunoassay Development, and Structural Insights for β-Lactams Based on Penicillin Binding Protein” (Molecules, 2021).

SMILES strings stand for the structures.

In one assay the target is PBP2x* (Streptococcus pneumoniae, UniProt P14677). Briefly: direct competitive ELISA, binding affinity of β-lactams to PBP2x*. The settings on record: for IC50: IC50 (affinity to PBP2x*). From the text:
The anti-metatype antibodies that recognize the complex formed by the receptor and ligand was developed by immunization. The success of the immunization depends on the stability of the receptor–drug complex. In the present study, we hypothesized that the complex formed by PBP2x* and β-lactams with high affinity to PBP2x* would achieve higher stability, because more non-covalent bonds typically tend to form between the two. In addition, the conformational change of PBP2x* induced by the combination of the β-lactams with high affinity may be greater due to the existence of more interaction forces, which stimulate the PBP2x* to some extent. Therefore, a direct competitive ELISA was carried out to determine the affinity of 18 β-lactams to PBP2x*. […] In the cephalosporin group, CPZ, CFN, CFZ, and CFM performed poorly: affinities with IC50 were greater than 10 ng/mL, which was almost 2–50-fold that of other drugs such as CTRX, CTX, and KF. (Table 2). Therefore, for the preparation of anti-metatype antibodies, five β-lactams (including PNG, AMP, AMX, CTX, and KF) with high affinity to PBP2x* were selected to form a complex with PBP2x*.
The PBP2x* (100 μL/well) was diluted to an appropriate concentration and coated on microtiter plates, and incubated overnight at 4 °C. After the solution was poured, the plates were washed 3 times with washing buffer and patted dry. Then, 150 μL of blocking solution was added to each well, followed by 1 h of incubation at 37 °C. The β-lactam standards (50 μL), which were diluted to a series of concentrations, were added into each well, then 50 μL of the enzyme marker prepared in our previous study was added, and incubated at 37 °C for 30 min. After the washing procedure, the color was developed by adding tetramethylbenzidine (TMB) substrate. Finally, 2 M H2SO4 (50 μL/well) was used to stop the enzymatic reaction, and the optical density (OD) values of 450 nm was measured.
(ELISA stands for enzyme-linked immunosorbent assay.)

The test system of assay [1] is PBP2x*-β-lactam complexes. Nature of the assay: sandwich immunoassay of 18 PBP2x*-β-lactam complexes (capture mAb 4H11, detection pAb #5). The conditions noted are these: 1000 ng/mL; mAb 4H11 capture, pAb #5 detection; n = 3; S/N > 1 positive detection. In kind it is binding. The procedure:
Microtiter plates were coated with 100 μL anti-mouse IgG antibody in CB buffer and incubated at 4 °C overnight. The plates were subsequently washed and blocked with 150 μL of 2% skim milk. Then, 100 μL of diluted mAb was added to the wells and incubated for 1 h at 37 °C. After washing, 100 μL individual PBP2x* or receptor–ligand complexes of 18 β-lactams with PBP2x* that were diluted to 1 μg/mL was added. The incubation was carried out at 37 °C for 1 h, followed by another washing procedure. Then, 100 μL diluted HRP-labeled pAb was added to the wells and incubated for 1 h at 37 °C. The TMB substrate solution was added after washing, followed by the addition of 2 M H2SO4 to stop the reaction, and finally the OD values were measured at 450 nm.

[2] abbreviates: PBP2x* coated, enzyme marker competitor.

By IC50 is commonly meant the concentration that gives 50% inhibition.

Chain of PBP2x* (P14677 49-750): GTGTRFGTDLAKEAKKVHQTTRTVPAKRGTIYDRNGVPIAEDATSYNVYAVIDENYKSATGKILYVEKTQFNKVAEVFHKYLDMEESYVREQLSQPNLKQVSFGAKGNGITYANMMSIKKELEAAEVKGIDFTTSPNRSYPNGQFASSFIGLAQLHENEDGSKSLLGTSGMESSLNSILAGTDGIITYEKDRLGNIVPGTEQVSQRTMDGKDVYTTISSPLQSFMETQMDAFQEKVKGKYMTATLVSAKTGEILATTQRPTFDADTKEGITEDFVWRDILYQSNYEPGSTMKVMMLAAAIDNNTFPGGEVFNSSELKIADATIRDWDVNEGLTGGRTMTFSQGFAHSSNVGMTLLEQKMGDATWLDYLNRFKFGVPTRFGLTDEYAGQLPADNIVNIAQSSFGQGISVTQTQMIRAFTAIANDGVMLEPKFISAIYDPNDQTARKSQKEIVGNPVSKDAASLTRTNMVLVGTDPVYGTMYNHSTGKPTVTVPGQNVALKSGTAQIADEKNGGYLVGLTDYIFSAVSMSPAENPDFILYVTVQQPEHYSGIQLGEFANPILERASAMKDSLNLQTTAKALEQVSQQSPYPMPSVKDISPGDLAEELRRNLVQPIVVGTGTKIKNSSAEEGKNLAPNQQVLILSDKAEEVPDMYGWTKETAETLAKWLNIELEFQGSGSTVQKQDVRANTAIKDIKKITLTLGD

On to `Cc1nnc(SCC2=C(C(=O)O)N3C(=O)[C@@H](NC(=O)Cn4cnnn4)[C@H]3SC2)s1` [CFZ, Cefazolin], for which the IC50 on PBP2x* (setting [2]) is 53.6 nM.
The same measure, in the same setting: with `C=CC1=C(C(=O)O)N2C(=O)[C@@H](NC(=O)/C(=N\OCC(=O)O)c3csc(N)n3)[C@H]2SC1` [CFM, Cefixime] the figure was 64.7 nM.
On the same count and under the same terms, the value for `CC(=O)OCC1=C(C(=O)O)N2C(=O)[C@@H](NC(=O)CSc3ccncc3)[C@H]2SC1` [CFAP, Cefapirin] was 14.3 nM.
As to `CC(=O)OCC1=C(C(=O)O)N2C(=O)[C@@H](NC(=O)Cc3cccs3)[C@H]2SC1` [KF, Cefalothin], the “Signal-to-noise ratio (S/N) of the sandwich immunoassay” value (from here on “Signal-to-noise ratio (S/N)”) in assay [1] is listed as below 1. For the same compound, on PBP2x*, the “affinity to PBP2x* (in words)” value was “high affinity”. The “IC50 (affinity to PBP2x*)” value at PBP2x* (setting [2]) is listed as 7.89 ng/mL.
Turning to `CC1(C)S[C@@H]2[C@H](NC(=O)Cc3ccccc3)C(=O)N2[C@H]1C(=O)O` [PNG, Penicillin G], the “Signal-to-noise ratio (S/N)” value in assay [1] was below 1. Also, the “affinity to PBP2x* (in words)” value at PBP2x* was “high affinity”. For the same compound, the IC50 at PBP2x* (setting [2]) is 10.6 nM.
For `Cc1onc(-c2ccccc2Cl)c1C(=O)N[C@@H]1C(=O)N2[C@@H]1SC(C)(C)[C@@H]2C(=O)O` [CLX, Cloxacillin], the “affinity to PBP2x* (in words)” value on PBP2x* is on record as “relatively poor affinity”. The IC50 on PBP2x* (setting [2]) was 173 nM.
`NC(=O)c1cc[n+](CC2=C(C(=O)[O-])N3C(=O)[C@@H](NC(=O)Cc4cccs4)[C@H]3SC2)cc1` [CFN, Cefalonium]: the IC50 on PBP2x* (setting [2]) was 33.4 nM.
For the compound `Cc1onc(-c2ccccc2)c1C(=O)N[C@@H]1C(=O)N2[C@@H]1SC(C)(C)[C@@H]2C(=O)O` [OXA, Oxacillin], the “affinity to PBP2x* (in words)” value at PBP2x* is listed as “relatively poor affinity”. For the same compound, on PBP2x* (setting [2]), the IC50 is 25.1 nM.
As for `CC1(C)S[C@@H]2[C@H](NC(=O)[C@H](N)c3ccccc3)C(=O)N2[C@H]1C(=O)O` [AMP, Ampicillin], the “Signal-to-noise ratio (S/N)” value in assay [1] is recorded as below 1. Further, the “affinity to PBP2x* (in words)” value on PBP2x* is on record as “high affinity”. Moreover, on PBP2x* (setting [2]), the IC50 is 22.3 nM.
`CO/N=C(\C(=O)N[C@@H]1C(=O)N2C(C(=O)O)=C(COC(C)=O)CS[C@H]12)c1csc(N)n1` [CTX, Cefotaxime]: the “affinity to PBP2x* (in words)” value at PBP2x* was “high affinity”. Besides, the IC50 at PBP2x* (setting [2]) was 10.4 nM.
On to `CC1(C)S[C@@H]2[C@H](NC(=O)[C@H](NC(=O)N3CCNC3=O)c3ccccc3)C(=O)N2[C@H]1C(=O)O` [AZL, Azlocillin], for which the “affinity to PBP2x* (in words)” value at PBP2x* is on record as “high affinity”. Also, the IC50 at PBP2x* (setting [2]) is 14.5 nM.
In the case of `CC1(C)S[C@@H]2[C@H](NC(=O)[C@H](N)c3ccc(O)cc3)C(=O)N2[C@H]1C(=O)O` [AMX, Amoxicillin], in assay [1], the “Signal-to-noise ratio (S/N)” value was below 1. Moreover, at PBP2x*, the “affinity to PBP2x* (in words)” value is on record as “high affinity”. Besides, the IC50 on PBP2x* (setting [2]) is 18.7 nM.
On to `Cc1onc(-c2c(Cl)cccc2Cl)c1C(=O)N[C@@H]1C(=O)N2[C@@H]1SC(C)(C)[C@@H]2C(=O)O` [DCX, Dicloxacillin], for which the “affinity to PBP2x* (in words)” value on PBP2x* is recorded as “relatively poor affinity”. In addition, at PBP2x* (setting [2]), the IC50 is 32.6 nM.
For `CCN1CCN(C(=O)N[C@@H](C(=O)N[C@@H]2C(=O)N3[C@@H]2SC(C)(C)[C@@H]3C(=O)O)c2ccccc2)C(=O)C1=O` [PIPC, Piperacillin] the same measures were “high affinity” and 15 nM.
Turning to `CO/N=C(\C(=O)N[C@@H]1C(=O)N2C(C(=O)O)=C(CSc3nc(=O)c(=O)[nH]n3C)CS[C@H]12)c1csc(N)n1` [CTRX, Cefatriaxone], the IC50 on PBP2x* (setting [2]) is 4.24 nM.
Still for that read-out and setting: with `CCN1CCN(C(=O)N[C@@H](C(=O)N[C@@H]2C(=O)N3C(C(=O)O)=C(CSc4nnnn4C)CS[C@H]23)c2ccc(O)cc2)C(=O)C1=O` [CPZ, Cefoperazone] the figure was 155 nM; with `CO/N=C(\C(=O)N[C@@H]1C(=O)N2C(C(=O)[O-])=C(C[N+]3(C)CCCC3)CS[C@H]12)c1csc(N)n1` [CFP, Cefepime], 15.2 nM.
With `CO/N=C(\C(=O)N[C@@H]1C(=O)N2C(C(=O)O)=C(CSC(=O)c3ccco3)CS[C@H]12)c1csc(N)n1` [CFT, Ceftiofur], on PBP2x* (setting [2]), the IC50 was 5.02 nM.
